Experimental data as given in paper PMC6309732 (ChemMedChem, 2016).

Key:
[1] = target: HIV-1 RT-associated RNA dependent DNA polymerase (Human immunodeficiency virus type 1 group M subtype B, UniProt P04585); assay: biochemical
[2] = target: T1, HIV-1 RT-associated RNase H (Human immunodeficiency virus type 1 group M subtype B, UniProt P04585); assay: HIV-1 DNA polymerase-independent RNase H activity determination; assay type: biochemical
[3] = Cytotoxicity in mock-infected MT-4 cells; assay type: cell-based; settings: human
HIV-2 (ROD strain) = assay: Antiviral assay, HIV-2; assay type: cell-based; settings: acutely infected MT-4 cells; at concentrations less than cytotoxic
[4] = target: T1, HIV-1 RT-associated RNase H; assay: RNase H assay with modified order of addition; assay type: biochemical; settings: for Fold increase of IC50 versus the regular assay: inhibitor added after duplex substrate vs regular assay
HIV-1 (IIIB strain) = assay: Antiviral assay, HIV-1; assay type: cell-based; settings: acutely infected MT-4 cells; at concentrations less than cytotoxic
HIV-1 RT heterodimer = HIV-1 RT heterodimer (Human immunodeficiency virus type 1 group M subtype B, UniProt P04585); assay: Differential Scanning Fluorimetry; assay type: binding; settings: 10 μM inhibitor, 300 nM HIV-1 RT; data not shown

Structure (SMILES): O=C(Nc1sc2c(c1C(=O)Nc1ccccn1)CCCCC2)c1ccccc1Br [Compound 23, 2-(2-Bromobenzamido)-N-(pyridin-2-yl)-5,6,7,8-tetrahydro-4H-cyclohepta[b]thiophene-3-carboxamide]
- IC50 [1]: > 50 µM
- IC50 [2]: 4.57 ± 0.01 µM

Structure (SMILES): O=C(Nc1sc2c(c1C(=O)Nc1ccccn1)CCCCC2)c1ccccc1[N+](=O)[O-] [Compound 24, 2-(2-Nitrobenzamido)-N-(pyridin-2-yl)-5,6,7,8-tetrahydro-4H-cyclohepta[b]thiophene-3-carboxamide]
- IC50 [2]: 53.5 ± 1.7 µM

Structure (SMILES): Nc1ccccc1C(=O)Nc1sc2c(c1C(=O)Nc1ccccn1)CCCCC2 [Compound 26, 2-(2-Aminobenzamido)-N-(pyridin-2-yl)-5,6,7,8-tetrahydro-4H-cyclohepta[b]thiophene-3-carboxamide]
- IC50 [2]: 14.9 ± 4.1 µM

Structure (SMILES): Nc1ccc(C(=O)Nc2sc3c(c2C(=O)Nc2ccccn2)CCCCC3)cc1 [Compound 27, 2-(4-Aminobenzamido)-N-(pyridin-2-yl)-5,6,7,8-tetrahydro-4H-cyclohepta[b]thiophene-3-carboxamide]
- IC50 [2]: 21.4 ± 4.4 µM

Structure (SMILES): Cc1ccccc1C(=O)Nc1sc2c(c1C(=O)Nc1ccccn1)CCCCC2 [Compound 29, 2-(2-Methylbenzamido)-N-(pyridin-2-yl)-5,6,7,8-tetrahydro-4H-cyclohepta[b]thiophene-3-carboxamide]
- IC50 [2]: 18.3 ± 1.8 µM

Structure (SMILES): COc1ccc(C(=O)Nc2sc3c(c2C(=O)Nc2ccccn2)CCCCC3)c(OC)n1 [Compound 30, 2,6-Dimethoxy-N-(3-(pyridin-2-ylcarbamoyl)-5,6,7,8-tetrahydro-4H-cyclohepta[b]thiophen-2-yl)nicotinamide]
- IC50 [2]: 21.5 ± 1 µM

Structure (SMILES): COc1ccc(C(=O)Nc2sc3c(c2C(=O)Nc2ccccn2)CCCCC3)cc1OC [Compound 31, 2-(3,4-Dimethoxybenzamido)-N-(pyridin-2-yl)-5,6,7,8-tetrahydro-4H-cyclohepta[b]thiophene-3-carboxamide]
- CC50 at 5 days [3]: 6.24 µM
- Inhibition of HIV-2 (ROD) replication (HIV-2 (ROD strain)): unable to affect viral replication
- IC50 [4]: 20 ± 7 µM
- Fold increase of IC50 versus the regular assay [4]: 5 fold
- Inhibition of HIV-1 (IIIB) replication (HIV-1 (IIIB strain)): unable to affect viral replication
- IC50 [1]: > 50 µM
- Effect on Tm of the RT heterodimer (HIV-1 RT heterodimer): no decreased Tm
- IC50 [2]: 4.01 ± 1 µM
- Fold decrease in RNase H potency relative to compound 33 ([2]; O-methylated hydroxyl groups vs catechol 33): 5 fold

Structure (SMILES): COc1ccc(C(=O)Nc2sc3c(c2C(=O)Nc2ccccn2)CCCCC3)c(O)n1 [Compound 32, 2-Hydroxy-6-methoxy-N-(3-(pyridin-2-ylcarbamoyl)-5,6,7,8-tetrahydro-4H-cyclohepta[b]thiophen-2-yl)nicotinamide]
- IC50 [2]: 15.1 ± 1.3 µM

Structure (SMILES): O=C(Nc1sc2c(c1C(=O)Nc1ccccn1)CCCCC2)c1ccc(O)c(O)c1 [Compound 33, 2-(3,4-Dihydroxybenzamido)-N-(pyridin-2-yl)-5,6,7,8-tetrahydro-4H-cyclohepta[b]thiophene-3-carboxamide]
- CC50 at 5 days [3]: 30.7 µM
- Inhibition of HIV-2 (ROD) replication (HIV-2 (ROD strain)): unable to affect viral replication
- IC50 [4]: 5.3 ± 0.2 µM
- Fold increase of IC50 versus the regular assay [4]: 5 fold
- Inhibition of HIV-1 (IIIB) replication (HIV-1 (IIIB strain)): unable to affect viral replication
- IC50 [1]: 20.9 ± 1.7 µM
- Effect on Tm of the RT heterodimer (HIV-1 RT heterodimer): no decreased Tm

Structure (SMILES): O=C(Nc1sc2c(c1C(=O)Nc1ccccn1)CCCCC2)c1cccs1 [Compound 34, N-(Pyridin-2-yl)-2-(thiophene-2-carboxamido)-5,6,7,8-tetrahydro-4H-cyclohepta[b]thiophene-3-carboxamide]
- IC50 [1]: > 50 µM
- IC50 [2]: 10.4 ± 1.96 µM

Structure (SMILES): CC(=O)Nc1sc2c(c1C(=O)Nc1ccccn1)CCCCC2 [Compound 35, 2-Acetamido-N-(pyridin-2-yl)-5,6,7,8-tetrahydro-4H-cyclohepta[b]thiophene-3-carboxamide]
- IC50 [2]: > 100 µM

Structure (SMILES): O=C(Cc1ccccc1F)Nc1sc2c(c1C(=O)Nc1ccccn1)CCCCC2 [Compound 36, 2-(2-(2-Fluorophenyl)acetamido)-N-(pyridin-2-yl)-5,6,7,8-tetrahydro-4H-cyclohepta[b]thiophene-3-carboxamide]
- IC50 [1]: > 50 µM

Structure (SMILES): O=C(Nc1sc2c(c1C(=O)Nc1ccccc1F)CCCCC2)c1ccccn1 [Compound 37, N-(3-((2-Fluorophenyl)carbamoyl)-5,6,7,8-tetrahydro-4H-cyclohepta[b]thiophen-2-yl)picolinamide]
- IC50 [2]: 13.7 ± 1.6 µM
